In ChEMBL document CHEMBL1201862, “PubChem BioAssay data set” (2004):
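Grown in 96-well plates, cells were treated for 48 hours with each compound at five concentrations. Insufficient inhibition: endpoint recorded as highest concentration tested. GI50 = concentration required for 50% inhibition of growth.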 The source made the active and inactive calls. No stated cut-off is given here; in the data, active = GI50 up to about 1.1 µM and inactive = higher.

How the values were obtained:
Assay in all cases: growth of human tumour cells (NCI), 48 h
[1] = tested on: OVCAR-3
[2] = tested on: COLO 205
[3] = tested on: U-251
[4] = tested on: SK-MEL-28
[5] = tested on: UO-31
[6] = tested on: ACHN
[7] = tested on: MOLT-4
[8] = tested on: LOX IMVI
[9] = tested on: OVCAR-4
[10] = tested on: CAKI-1
[11] = tested on: HCC 2998
[12] = tested on: SF-295
[13] = tested on: OVCAR-8
[14] = tested on: SF-268
[15] = tested on: EKVX
[16] = tested on: IGROV-1
[17] = tested on: CCRF-CEM
[18] = tested on: UACC-62
[19] = tested on: NCI-H522
[20] = tested on: TK-10

Row | SMILES | GI50 [1] | GI50 [2] | GI50 [3] | GI50 [4] | GI50 [5] | GI50 [6] | GI50 [7] | GI50 [8] | GI50 [9] | GI50 [10] | GI50 [11] | GI50 [12] | GI50 [13] | GI50 [14] | GI50 [15] | GI50 [16] | GI50 [17] | GI50 [18] | GI50 [19] | GI50 [20]
1 | CCCCNC(=O)c1cc(S(=O)(=O)n2ccnc2O)c(SC)cc1Cl | > 100 µM (inactive) | > 100 µM (inactive) | > 100 µM (inactive) | > 100 µM (inactive) | > 100 µM (inactive) | > 100 µM (inactive) | > 100 µM (inactive) | > 100 µM (inactive) | > 100 µM (inactive) | > 100 µM (inactive) | > 100 µM (inactive) | > 100 µM (inactive) | > 100 µM (inactive) | > 10 µM (inactive) | > 100 µM (inactive) | > 100 µM (inactive) | > 100 µM (inactive) | > 100 µM (inactive) | > 100 µM (inactive) | > 100 µM (inactive)
2 | COC1(OC)c2no[n+]([O-])c2CCC1O (stereo unspecified) | > 100 µM (inactive) | > 100 µM (inactive) |  | > 100 µM (inactive) | > 100 µM (inactive) | > 100 µM (inactive) | > 100 µM (inactive) | > 100 µM (inactive) | > 100 µM (inactive) | > 100 µM (inactive) | > 100 µM (inactive) | > 100 µM (inactive) | > 100 µM (inactive) | > 100 µM (inactive) | > 100 µM (inactive) | > 100 µM (inactive) | > 100 µM (inactive) | > 100 µM (inactive) | > 100 µM (inactive) | > 100 µM (inactive)
3 | CN(C)CCOc1cc2c(c3ccccc13)-c1ccccc1C2O (stereo unspecified) | 15.6 µM (inactive) | 12.5 µM (inactive) | 15.5 µM (inactive) | 16 µM (inactive) | 12.5 µM (inactive) |  | 3.33 µM (inactive) | 10.2 µM (inactive) | 17.9 µM (inactive) | 12.9 µM (inactive) | 14.4 µM (inactive) | 13.5 µM (inactive) | 11.7 µM (inactive) | 14.5 µM (inactive) | 14.8 µM (inactive) | 16.7 µM (inactive) | 14.1 µM (inactive) | 17.2 µM (inactive) | 16 µM (inactive) | 
4 | C/C=C(/C)C(=O)O[C@H]1[C@H]2[C@@H]([C@@H](OC(C)=O)[C@H](C)C(=O)[C@@]34C[C@@H](C)C(=O)[C@]3(/C=C(\C)[C@H]1OC(C)=O)O4)C2(C)C | 3.95 µM (inactive) | 2.6 µM (inactive) | 5.7 µM (inactive) |  | 3.85 µM (inactive) | 3.8 µM (inactive) | 1.83 µM (inactive) | 3.09 µM (inactive) | 4.9 µM (inactive) | 4.42 µM (inactive) | 5.16 µM (inactive) | 3.89 µM (inactive) | 3.48 µM (inactive) | 5.98 µM (inactive) | 3.83 µM (inactive) | 4.5 µM (inactive) | 0.463 µM (active) | 3.35 µM (inactive) | 3.28 µM (inactive) | 3.45 µM (inactive)
5 | CN(C)C(=O)Oc1c(Br)cc(Br)cc1C(=O)OCc1ccccc1 | 19.1 µM (inactive) | 18.3 µM (inactive) | 21.6 µM (inactive) | 40.2 µM (inactive) | 20.3 µM (inactive) |  | 17.5 µM (inactive) | 22.8 µM (inactive) | 33 µM (inactive) | 23.3 µM (inactive) | 36.1 µM (inactive) | 20.9 µM (inactive) | 32.4 µM (inactive) | 35.6 µM (inactive) | 35.6 µM (inactive) | 28.6 µM (inactive) | 19.3 µM (inactive) | 15.7 µM (inactive) | 34.8 µM (inactive) | 
6 | COc1ccc(/C=C2\CCC/C(=C\c3ccc(O)c(CN4CCCCC4)c3)C2=O)cc1 | 10.8 µM (inactive) | 8.09 µM (inactive) | 4.06 µM (inactive) | 11.3 µM (inactive) | 6.75 µM (inactive) | 10.3 µM (inactive) | 2.59 µM (inactive) | 2.82 µM (inactive) | 22.2 µM (inactive) | 11.1 µM (inactive) | 5.45 µM (inactive) | 6.95 µM (inactive) | 2.81 µM (inactive) | 3.31 µM (inactive) | 10 µM (inactive) | 4.7 µM (inactive) | 4.02 µM (inactive) | 3.9 µM (inactive) | 2.96 µM (inactive) | 5.77 µM (inactive)
7 | Nc1nc2ccc3ccccc3c2[nH]1 | > 10 µM (inactive) | > 10 µM (inactive) | > 10 µM (inactive) | > 10 µM (inactive) | 5.66 µM (inactive) | > 10 µM (inactive) | > 10 µM (inactive) | > 10 µM (inactive) | > 10 µM (inactive) | > 10 µM (inactive) | > 10 µM (inactive) | > 10 µM (inactive) | > 10 µM (inactive) | > 10 µM (inactive) | > 10 µM (inactive) | > 10 µM (inactive) | > 10 µM (inactive) | > 10 µM (inactive) | > 10 µM (inactive) | > 10 µM (inactive)
8 | O[C@H]1[C@H]2[C@H](O)CCCN2C[C@H]1O [TRIDOLGOSIR] | > 100 µM (inactive) | > 100 µM (inactive) | > 100 µM (inactive) | > 100 µM (inactive) | > 100 µM (inactive) | > 100 µM (inactive) | > 100 µM (inactive) | > 100 µM (inactive) | > 100 µM (inactive) | > 100 µM (inactive) | > 100 µM (inactive) | > 100 µM (inactive) | > 100 µM (inactive) | > 100 µM (inactive) | > 100 µM (inactive) | > 100 µM (inactive) | 85.3 µM (inactive) | > 100 µM (inactive) | > 100 µM (inactive) | > 100 µM (inactive)
9 | O=c1c(-c2ccccc2)c(SCCN2CCOCC2)n(-c2ccccc2)c(=S)n1-c1ccccc1 | > 100 µM (inactive) | > 100 µM (inactive) | > 100 µM (inactive) | > 100 µM (inactive) |  | > 100 µM (inactive) | > 100 µM (inactive) | > 100 µM (inactive) | 32.1 µM (inactive) | 52 µM (inactive) | > 100 µM (inactive) | 83.6 µM (inactive) | 63 µM (inactive) |  | > 100 µM (inactive) | > 100 µM (inactive) | > 100 µM (inactive) | 89.1 µM (inactive) | 51.5 µM (inactive) | 46.6 µM (inactive)
10 | O=C(Nc1ccc([N+](=O)[O-])cc1)C(=O)C(C(=O)c1ccccc1F)C1OC(=O)c2ccccc21 (stereo unspecified) |  | 25.9 µM (inactive) | 17.7 µM (inactive) | 46.9 µM (inactive) | 38.1 µM (inactive) | 58.5 µM (inactive) | 26 µM (inactive) | 17.7 µM (inactive) | 42.8 µM (inactive) | 59.4 µM (inactive) | 21 µM (inactive) | 40.3 µM (inactive) | 35.9 µM (inactive) | 35 µM (inactive) | 40.4 µM (inactive) | 64.9 µM (inactive) | 16.6 µM (inactive) | 25.2 µM (inactive) | 14.7 µM (inactive) | > 100 µM (inactive)
11 | COc1ccc2c(O)c3[n+](cc2c1OC)CCc1cc2c(cc1-3)OCO2 | > 100 µM (inactive) | > 100 µM (inactive) | > 100 µM (inactive) |  |  | > 100 µM (inactive) | > 100 µM (inactive) | 69 µM (inactive) | > 100 µM (inactive) | > 100 µM (inactive) | > 100 µM (inactive) | 42.9 µM (inactive) | > 100 µM (inactive) | > 100 µM (inactive) | > 100 µM (inactive) | 91.8 µM (inactive) | 52.8 µM (inactive) | 37.4 µM (inactive) | 17 µM (inactive) | > 100 µM (inactive)
12 | CC(=O)c1ccccc1NP(=O)(c1ccccc1)c1ccccc1 | 43.1 µM (inactive) | 13.2 µM (inactive) | 96.6 µM (inactive) | 67.9 µM (inactive) | 45.3 µM (inactive) | > 100 µM (inactive) | 32.1 µM (inactive) | 90.6 µM (inactive) | 27.5 µM (inactive) | 30.8 µM (inactive) | > 100 µM (inactive) | 74.6 µM (inactive) | > 100 µM (inactive) | 74.5 µM (inactive) | 45.4 µM (inactive) | 46.5 µM (inactive) | 33.5 µM (inactive) | 35.2 µM (inactive) | 37.3 µM (inactive) | 40.8 µM (inactive)
13 | COC(=O)CN(C)P(=O)(N1CC1)N1CC1 |  | > 100 µM (inactive) | > 100 µM (inactive) | > 100 µM (inactive) | > 100 µM (inactive) | 71.4 µM (inactive) | 33 µM (inactive) | 76 µM (inactive) | > 100 µM (inactive) | > 100 µM (inactive) | > 100 µM (inactive) | 90.2 µM (inactive) | > 100 µM (inactive) | 89.7 µM (inactive) | > 100 µM (inactive) | > 100 µM (inactive) | 36.9 µM (inactive) | 90.2 µM (inactive) | > 100 µM (inactive) | > 100 µM (inactive)
14 | Cc1ccc(-c2nc3cc(F)c(N4CCN(C)CC4)cc3[nH]2)cc1 |  | 15.9 µM (inactive) | 29.5 µM (inactive) | 26.2 µM (inactive) | 13.9 µM (inactive) | 21.1 µM (inactive) | 22.8 µM (inactive) | 27.9 µM (inactive) | 17.1 µM (inactive) | 32.1 µM (inactive) | 11.9 µM (inactive) | 16.6 µM (inactive) |  | 15.3 µM (inactive) | 23.1 µM (inactive) | 22.7 µM (inactive) | 23.4 µM (inactive) | 16.3 µM (inactive) | 14.5 µM (inactive) | 22.2 µM (inactive)
